Laboratory results: paper PMC4200852, “Metabolism of Cryptic Peptides Derived from Neuropeptide FF Precursors: The Involvement of Insulin-Degrading Enzyme” (International Journal of Molecular Sciences, 2014)
“Also recorded” adds a separate entry of the source. Ends that are not written are not given here.

Assays:
IDE [1] = conditions: statement without data or reference; cited from earlier work
[2] = system: IDE, His-Tag, rat, recombinant; experiment: Proteolysis by insulin-degrading enzyme (IDE) in vitro, ESI-MS; format: in vitro ADME; conditions: 37 °C; for stability without IDE: no IDE
Source text: Other peaks assigned to the same fragments with the addition of Na^+ and K^+ are not labelled for simplicity.
IDE, His-Tag, rat, recombinant, from Spodoptera frugiperda, was purchased from Calbiochem (Milan, Italy), and its activity was verified by carrying out enzymatic digestion of insulin solutions according to the experimental procedure previously reported. Methanol (MeOH), formic acid (FA), Tris–HCl buffer, phosphate buffered saline (PBS) buffer and all chemicals used were purchased from Sigma–Aldrich. ZIPTIP C18 was purchased from Millipore (Milan, Italy). IDE enzymatic assays were carried out by incubating the enzyme solution (0.4 μM) at 37 °C with the peptide solution at the indicated concentration. After purification with ZIPTIP C18, 3 μL of the resulting solution were mixed with 50 μL of water and 50 μL of MeOH and injected into the mass spectrometer at 5 μL/min. ESI-MS experiments were performed by using a Finnigan LCQ DECA XP PLUS ion trap spectrometer operating in the positive ion mode and equipped with an orthogonal ESI source (Thermo Electron Corporation, Madison, WI, USA). Sample solutions were injected into the ion source using nitrogen as the drying gas. The mass spectrometer operated with a capillary voltage of 46 V and capillary a temperature of 250 °C, while the spray voltage was 4.3 kV. MS/MS data were interpreted by using the “Molecular Weight Calculator” software by Matthew Monroe freely available on the web.

[3] = NPNA metabolism by enzyme fractions separated from rat brain cortex homogenate, ESI-MS; format: in vitro ADME, male Wistar rats; conditions: for peptide fragment (sequence) formed: 120 min
Description: Brain cortices were rapidly removed from the male Wistar rats (150–200 g) and frozen immediately on dry ice. Tissues were kept at −80 °C until assayed. Brain was homogenized in an ice-cold 20 mM Tris–HCl buffer, pH 7.5, and diluted 1:6. The obtained homogenate was centrifuged twice at 14,000× g for 10 min at 4 °C.
Enzymes present in the rat brain homogenate were separated on the ion-exchange column Econo-Pac High Q (resin volume: 5 mL; Bio-Rad, Berkeley, CA, USA). Gradient separation was performed by the HPLC system Prominence LC-20 AD with a Photodiode Array Detector SPD-M20A (Shimadzu, Tokyo, Japan). The sample volume loaded on the column was 1 mL. The mobile phase consisted of 20 mM Tris–HCl buffer, pH 7.5, and a gradient of NaCl from 0 to 500 mM in 60 min was used. The total flow rate was 1 mL/min. One-point-five-milliliter fractions were collected during the separation and stored in −80 °C prior to further experiments.
Enzyme assays were performed in 0.5-mL Eppendorf tubes. Each homogenized brain fraction was diluted 1:5 with 20 mM Tris–HCl buffer, pH 7.5, and the reaction was initiated by the addition of 5 μg of NPNA and continued by mixing at 37 °C for 120 min (or for 300 min for preparing time course metabolic process). Five-microliter aliquots were taken from the incubation mixture, acidified by 30% MeOH with 0.1% FA and analyzed by ESI-MS (Bruker Esquire 3000) equipped with an autosampler (Famos, Thermo Scientific, earlier LC-Packings, Bremen, Germany). MS/MS analysis was performed to confirm the sequence of the released fragments. Quantitation of the enzyme activity was performed by integration of the peak area of formed products on the mass chromatogram. The samples were incubated with and without amastatin, an aminopeptidase inhibitor.

IDE [4] = molecular target: T1, IDE (Rattus norvegicus, UniProt P35559); experiment: Surface Plasmon Resonance (SPR) OneStep binding to immobilized IDE; conditions: comparison among the peptides tested
T1 construct: His-Tag; purchased Calbiochem (Milan, Italy); host or cells: Spodoptera frugiperda
T1 sequence (P35559 1-1019): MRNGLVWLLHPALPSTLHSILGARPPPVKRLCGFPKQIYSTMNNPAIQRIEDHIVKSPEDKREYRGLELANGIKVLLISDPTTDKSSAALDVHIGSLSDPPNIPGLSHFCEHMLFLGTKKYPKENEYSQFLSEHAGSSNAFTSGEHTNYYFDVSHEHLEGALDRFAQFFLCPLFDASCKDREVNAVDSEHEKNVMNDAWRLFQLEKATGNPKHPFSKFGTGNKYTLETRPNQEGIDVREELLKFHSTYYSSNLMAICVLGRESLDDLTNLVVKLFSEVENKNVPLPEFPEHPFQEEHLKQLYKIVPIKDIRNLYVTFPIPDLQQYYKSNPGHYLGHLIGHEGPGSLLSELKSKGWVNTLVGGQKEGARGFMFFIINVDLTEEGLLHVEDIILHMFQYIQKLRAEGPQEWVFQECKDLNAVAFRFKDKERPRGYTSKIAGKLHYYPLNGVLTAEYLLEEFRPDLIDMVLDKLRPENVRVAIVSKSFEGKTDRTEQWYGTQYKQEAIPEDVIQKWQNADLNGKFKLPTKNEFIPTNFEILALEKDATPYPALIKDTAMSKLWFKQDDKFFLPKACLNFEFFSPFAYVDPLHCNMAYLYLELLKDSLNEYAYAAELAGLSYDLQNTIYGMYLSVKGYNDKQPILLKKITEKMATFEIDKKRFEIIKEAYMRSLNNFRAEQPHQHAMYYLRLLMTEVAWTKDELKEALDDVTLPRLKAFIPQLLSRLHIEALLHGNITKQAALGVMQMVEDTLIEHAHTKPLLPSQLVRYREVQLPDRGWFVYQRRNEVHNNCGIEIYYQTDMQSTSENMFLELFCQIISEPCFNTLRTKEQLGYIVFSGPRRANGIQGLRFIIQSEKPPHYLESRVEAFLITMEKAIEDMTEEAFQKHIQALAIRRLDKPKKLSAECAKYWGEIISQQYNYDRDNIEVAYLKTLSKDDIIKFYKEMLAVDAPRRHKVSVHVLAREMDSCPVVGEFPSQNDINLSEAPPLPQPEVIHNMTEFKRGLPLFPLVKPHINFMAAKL

[5] = NPPW 1–25 degradation in rat brain homogenate, with and without amastatin, ESI-MS; format: in vitro ADME; conditions: NPPW 1–25, rat brain homogenate
Description: We then tested the degradation of NPPW 1–25 peptide after incubation with rat brain homogenate, with and without the addition of amastatin. The latter was added to exclude the activity of aminopeptidases that are abundant in CNS. Such activity is responsible, among others, for the inactivation of opioid peptides, by truncation of the N-terminal Tyr, thus preventing binding to opioid receptors. […] In Table 2, the assignment of the peptide fragments detected is reported, while in Figure 4, a quantitative detection of their amounts at different incubation times is also shown. […] A further proof of this thesis could be obtained by applying selective IDE inhibitors that could become more easily available in the near future.
Brain cortices were rapidly removed from the male Wistar rats (150–200 g) and frozen immediately on dry ice. Tissues were kept at −80 °C until assayed. Brain was homogenized in an ice-cold 20 mM Tris–HCl buffer, pH 7.5, and diluted 1:6. […]
Enzyme assays were performed in 0.5-mL Eppendorf tubes. […] Five-microliter aliquots were taken from the incubation mixture, acidified by 30% MeOH with 0.1% FA and analyzed by ESI-MS (Bruker Esquire 3000) equipped with an autosampler (Famos, Thermo Scientific, earlier LC-Packings, Bremen, Germany). […] Quantitation of the enzyme activity was performed by integration of the peak area of formed products on the mass chromatogram. […]

[6] = molecular target: T2, Insulin-degrading enzyme (IDE), His-Tag, rat, recombinant (rat, UniProt P35559 1-1019); experiment: SPR; SensiQ Pioneer, OneStep approach; IDE immobilised by amine coupling on a COOH5 chip; peptides in solution (initial concentrations NPSA 74 uM, NPNA 74 uM, NPPW 150 uM); 0.01 M HEPES, 0.15 M NaCl, pH 7.4; fitted with Qdat, one binding site model for NPNA, two binding site model for NPSA and NPPW; conditions: both partners purified
T2 construct: Insulin-degrading enzyme, rat, recombinant with His-Tag; Bought protein; immobilised by amine coupling for SPR; source: bought: Calbiochem (recombinant, from Spodoptera frugiperda)
T2 sequence (looked up): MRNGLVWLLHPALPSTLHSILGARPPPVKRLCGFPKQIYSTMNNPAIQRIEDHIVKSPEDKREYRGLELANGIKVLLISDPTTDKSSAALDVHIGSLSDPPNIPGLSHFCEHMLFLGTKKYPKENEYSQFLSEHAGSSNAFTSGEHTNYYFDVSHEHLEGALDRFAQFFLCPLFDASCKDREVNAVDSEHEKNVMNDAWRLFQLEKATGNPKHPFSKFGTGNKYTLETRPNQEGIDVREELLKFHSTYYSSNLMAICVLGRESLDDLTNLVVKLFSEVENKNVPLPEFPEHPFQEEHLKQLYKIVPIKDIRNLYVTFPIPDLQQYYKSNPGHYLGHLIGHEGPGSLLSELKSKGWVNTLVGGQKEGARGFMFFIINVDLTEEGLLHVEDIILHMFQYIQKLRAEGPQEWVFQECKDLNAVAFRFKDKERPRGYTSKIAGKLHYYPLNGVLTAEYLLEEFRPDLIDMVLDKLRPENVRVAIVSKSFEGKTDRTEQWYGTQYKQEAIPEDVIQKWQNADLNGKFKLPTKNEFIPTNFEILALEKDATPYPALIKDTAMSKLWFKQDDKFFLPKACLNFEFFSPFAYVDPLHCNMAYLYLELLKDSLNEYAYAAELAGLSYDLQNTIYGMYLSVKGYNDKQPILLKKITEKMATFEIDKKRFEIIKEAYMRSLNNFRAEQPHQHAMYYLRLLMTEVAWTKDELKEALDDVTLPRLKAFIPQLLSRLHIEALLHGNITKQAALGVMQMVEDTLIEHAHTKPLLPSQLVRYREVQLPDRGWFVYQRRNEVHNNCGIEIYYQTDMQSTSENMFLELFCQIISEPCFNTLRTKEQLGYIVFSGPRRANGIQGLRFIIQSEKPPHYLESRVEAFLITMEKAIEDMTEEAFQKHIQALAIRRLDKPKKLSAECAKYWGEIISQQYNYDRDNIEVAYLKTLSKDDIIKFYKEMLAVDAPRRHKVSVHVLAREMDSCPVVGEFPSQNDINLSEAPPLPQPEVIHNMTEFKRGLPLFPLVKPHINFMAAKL

CC(C)C[C@@H](N)[C@H](O)C(=O)N[C@H](C(=O)N[C@H](C(=O)N[C@@H](CC(=O)O)C(=O)O)C(C)C)C(C)C [amastatin, reference compound]
inhibition of IDE (IDE [1]): not inhibited by amastatin

NAWGPWSKEQLSPQA [NPNA, NAWGPWSKEQLSPQA]
degradation by IDE ([2]; NPNA incubated with IDE, up to 24 h, ESI-MS): not cleaved by IDE; also recorded: IDE is not able to degrade NPNA; also recorded: not degraded by IDE; also recorded: does not produce any NPNA fragments at all incubation times investigated | time of highest amount of main product 1–11 ([3]; Fraction 23, 37 °C, pH 7.5): 4 h | peptide fragment (sequence) formed ([3]; Fraction 23 from Econo-Pac High Q, 5 μg NPNA, 20 mM Tris–HCl pH 7.5, 37 °C, ESI-MS): SPQA | main product, time course ([3]; Fraction 26, 37 °C, pH 7.5): SKEQL | peptide fragment (sequence) formed ([3]; Fraction 26 from Econo-Pac High Q, 5 μg NPNA, 20 mM Tris–HCl pH 7.5, 37 °C, ESI-MS): NAW and GPW and SKEQL and SPQA | cleavage position by brain cortex proteases ([3]; rat brain cortex fractions, 20 mM Tris–HCl pH 7.5, 37 °C, ESI-MS): mainly at the carboxyl side of the tryptophan and leucine; also recorded: mainly at the carboxyl side of tryptophan and leucine | time of highest product intensity ([3]; time course, rat brain cortex fractions, 5 μg NPNA, 20 mM Tris–HCl pH 7.5, 37 °C, ESI-MS): 4 h

PQRFGRNAWGPWSKEQLSPQAREFW [NPPW 1–25]
relative KD for both binding sites (IDE [4]): lowest KD values for both binding sites | major cleavage site [5]: Gln20–Ala21 | most abundant peptide fragment [5]: NPPW 1–20 | cleavage sites by IDE ([2]; 50 μM NPPW 1–25, 8 nM IDE, PBS, 8 h, ESI-MS): Gly5–Arg6, Ala8–Trp9, Gly10–Pro11 and Gln20–Ala21 | fragments produced by IDE ([2]; 50 μM NPPW 1–25, 8 nM IDE, PBS, 8 h, ESI-MS, MS/MS): WGPWSKEQLSPQ; also recorded: PQRFGRNAWGPWSKEQLSPQ at high abundance | major cleavage site by IDE ([2]; 50 μM NPPW 1–25, 8 nM IDE, PBS, ESI-MS): Gln20–Ala21 | stability without IDE ([2]; 50 μM NPPW 1–25, PBS, 8 h, ESI-MS): only the full-length peptide is detected | fragment generated only at longer incubation times with IDE ([2]; NPPW 1–25, more than 2 h, data not shown): PWSKEQLSPQAREFW | most abundant fragment produced by IDE ([2]; NPPW 1–25 with IDE, ESI-MS): PQRFGRNAWGPWSKEQLSPQ

SAWGSWSKEQLNPQA [NPSA, SAWGSWSKEQLNPQA]
main cleavage site by IDE ([2]; 50 μM NPSA, 8 nM IDE, PBS, 2 h, ESI-MS): between Trp6 and Ser7 | fragments produced by IDE ([2]; 50 μM NPSA, 8 nM IDE, PBS, 2 h, ESI-MS, confirmed by MS/MS): SAWGSW; also recorded: SKEQLNPQA | main cleavage site by IDE ([2]; 50 μM NPSA, 8 nM IDE, PBS, 2 h, ESI-MS, listed as NPSA 1–15): Trp6–Ser7 | stability without IDE ([2]; 50 μM NPSA, PBS, 2 h, ESI-MS): only the full-length peptide is detected | time to complete degradation by IDE ([2]; (IDE) = 1/6000 (NPSA), disappearance of NPSA molecular peak, 50 μM NPSA, PBS, ESI-MS): two

B1: NPNA (NAWGPWSKEQLSPQA {1-15}) (peptide)
peptide: NAWGPWSKEQLSPQA
notes: NPNA, residues 85-99 of rat pro-NPFFA (neuropeptide FF precursor); also called NPNA 1-15; source: synthetic peptide (Fmoc solid phase synthesis, purified by HPLC)
Kd [6]: 3.98 mM
